# According to US11708549B2, “Bacterial, fungal, and yeast growth inhibitor containing allulose” (CJ CHEILJEDANG CORPORATION, priority 2016, dated 2023):
# How the values were obtained:
# [1] = system: Lactobacillus casei and Lactococcus lactis subsp. lactis, as bacteria; assay: Increase in cell number of bacteria depending on saccharides; type: cell-based; conditions: bacteria in modified MRS medium, FIGS. 1 and 2
# Text: (§1) Specifically, each of the microorganisms (bacteria, fungi, and yeasts) obtained from Korean Culture Center of Microorganisms (KCCM) was subcultured three or four times in a culture medium (Table 1) by a typical method to enhance activity. Then, the cultured microorganism was inoculated into a culture medium (Table 1), followed by inducing over-cultivation to a concentration of 10^5 CFU/mL or more, thereby obtaining a strain mother liquor (Table 1).
# (§2) In order to compare degrees of inhibition of the growth of microorganisms depending upon the kind of purely added saccharides without a bias due to alcohol and other additives contained in a fermented alcoholic beverage, only the kind of saccharides added to a culture medium for each of the microorganisms was varied and investigated.
# (§3) Specifically, as saccharides of a culture medium suited to each strain, water-containing crystalline glucose (purity 98 wt % or more, CJ Cheiljedang), sucrose (purity 98 wt % or more, CJ Cheiljedang), and crystalline allulose (purity: 98 wt % or more, CJ Cheiljedang) were added to each of the culture medium, thereby preparing a modified culture medium (Tables 2 to 4). […]
# (§4) Thereafter, the measured number of cell colonies was multiplied by a dilution factor, thereby calculating a value of colony forming unit (CFU) per mL of sample.
# [2] = system: Saccharomyces cerevisiae and Saccharomyces pastorianus, as yeasts; assay: Increase in cell number of yeasts depending on saccharides; type: cell-based; conditions: yeasts in modified YMB medium, FIGS. 8 and 9
# Text: as §1, §2, §3, §4
compound,measurement,setting,value
O=C(CO)C(O)C(O)C(O)CO (centres unmarked) [allulose],strain growth (in words),[1],substantially no strain growth was observed
same,strain growth (in words),[2],substantially no strain growth was observed
